Experimental data published in the supplement of paper PMC10307832.

Assays:
Experiment in all cases: relative viability (nuclei count vs DMSO), 5 days (fraction); higher = more cells survive
NCI-H520 = tested on: NCI-H520
In short: (§1)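 The day after seeding in 1536-well plates, lung cancer cell lines were treated by pin tool with a single drug, or with a fixed anchor-drug dose together with five library-drug doses (not always all listed) in √10 steps. After 5 days, a combined fix-and-stain solution (final 0.05% Triton X-100, 1% formaldehyde, 1 ug/ml Hoechst) was added. Nuclei counted on 4× images gave relative viability as treated counts over vehicle counts, reported as the median of duplicate plates.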

HOP-62 = tested on: HOP-62
In short: as §1

NCI-H23 = tested on: NCI-H23
In short: as §1

NCI-H441 = tested on: NCI-H441
In short: as §1

NCI-H2170 = tested on: NCI-H2170
In short: as §1

LCLC-103H = tested on: LCLC-103H
In short: as §1

NCI-H2023 = tested on: NCI-H2023
In short: as §1

NCI-H2347 = tested on: NCI-H2347
In short: as §1

EMC-BAC-2 = tested on: EMC-BAC-2
In short: as §1

NCI-H647 = tested on: NCI-H647
In short: as §1

EPLC-272H = tested on: EPLC-272H
In short: as §1

NCI-H2126 = tested on: NCI-H2126
In short: as §1

NCI-H650 = tested on: NCI-H650
In short: as §1

NCI-H1437 = tested on: NCI-H1437
In short: as §1

NCI-H2405 = tested on: NCI-H2405
In short: as §1

NCI-H2009 = tested on: NCI-H2009
In short: as §1

HCC-44 = tested on: HCC-44
In short: as §1

NCI-H460 = tested on: NCI-H460
In short: as §1

LOU-NH91 = tested on: LOU-NH91
In short: as §1

SW 1573 = tested on: SW 1573
In short: as §1

NCI-H1793 = tested on: NCI-H1793
In short: as §1

NCI-H727 = tested on: NCI-H727
In short: as §1

## O=C(O)CCCCC(CCSCc1ccccc1)SCc1ccccc1 (centres undefined) [CPI-613] + Cc1nc(NC(=O)N2CCC[C@H]2C(N)=O)sc1-c1ccnc(C(C)(C)C(F)(F)F)c1 [Alpelisib] (partner 2 µM)
NCI-H520; first compound 5 µM
  relative viability: 0.731
NCI-H520; first compound 15.81 µM
  relative viability: 1.01
NCI-H520; first compound 50 µM
  relative viability: 0.845
NCI-H520; first compound 158.11 µM
  relative viability: 0.403
NCI-H520; first compound 500 µM
  relative viability: 0.112
HOP-62; first compound 5 µM
  relative viability: 1.07
HOP-62; first compound 15.81 µM
  relative viability: 0.833
HOP-62; first compound 50 µM
  relative viability: 0.916
HOP-62; first compound 158.11 µM
  relative viability: 0.189
HOP-62; first compound 500 µM
  relative viability: 0.246
NCI-H23; first compound 5 µM
  relative viability: 0.684
NCI-H23; first compound 15.81 µM
  relative viability: 0.604
NCI-H23; first compound 50 µM
  relative viability: 0.685
NCI-H23; first compound 158.11 µM
  relative viability: 0.143
NCI-H23; first compound 500 µM
  relative viability: 0.0565
NCI-H441; first compound 5 µM
  relative viability: 0.692
NCI-H441; first compound 15.81 µM
  relative viability: 1.01
NCI-H441; first compound 50 µM
  relative viability: 0.573
NCI-H441; first compound 158.11 µM
  relative viability: 0.216
NCI-H441; first compound 500 µM
  relative viability: 0.007
NCI-H2170; first compound 5 µM
  relative viability: 0.808
NCI-H2170; first compound 15.81 µM
  relative viability: 0.766
NCI-H2170; first compound 50 µM
  relative viability: 0.796
NCI-H2170; first compound 158.11 µM
  relative viability: 0.547
NCI-H2170; first compound 500 µM
  relative viability: 0.483
LCLC-103H; first compound 5 µM
  relative viability: 0.845
LCLC-103H; first compound 15.81 µM
  relative viability: 0.974
LCLC-103H; first compound 50 µM
  relative viability: 0.883
LCLC-103H; first compound 158.11 µM
  relative viability: 0.873
LCLC-103H; first compound 500 µM
  relative viability: 0.964
NCI-H2023; first compound 5 µM
  relative viability: 0.624
NCI-H2023; first compound 15.81 µM
  relative viability: 0.576
NCI-H2023; first compound 50 µM
  relative viability: 0.548
NCI-H2023; first compound 158.11 µM
  relative viability: 0.0809
NCI-H2023; first compound 500 µM
  relative viability: 0.0084
NCI-H2347; first compound 5 µM
  relative viability: 1.02
NCI-H2347; first compound 15.81 µM
  relative viability: 0.963
NCI-H2347; first compound 50 µM
  relative viability: 0.959
NCI-H2347; first compound 158.11 µM
  relative viability: 1.05
NCI-H2347; first compound 500 µM
  relative viability: 0.973
EMC-BAC-2; first compound 5 µM
  relative viability: 0.713
EMC-BAC-2; first compound 15.81 µM
  relative viability: 0.702
EMC-BAC-2; first compound 50 µM
  relative viability: 0.72
EMC-BAC-2; first compound 158.11 µM
  relative viability: 0.68
EMC-BAC-2; first compound 500 µM
  relative viability: 0.119
NCI-H647; first compound 5 µM
  relative viability: 1.19
NCI-H647; first compound 15.81 µM
  relative viability: 0.968
NCI-H647; first compound 50 µM
  relative viability: 0.769
NCI-H647; first compound 158.11 µM
  relative viability: 0.0933
NCI-H647; first compound 500 µM
  relative viability: 0.0159
EPLC-272H; first compound 5 µM
  relative viability: 0.95
EPLC-272H; first compound 15.81 µM
  relative viability: 0.813
EPLC-272H; first compound 50 µM
  relative viability: 0.94
EPLC-272H; first compound 158.11 µM
  relative viability: 0.923
EPLC-272H; first compound 500 µM
  relative viability: 1.04
NCI-H2126; first compound 5 µM
  relative viability: 0.755
NCI-H2126; first compound 15.81 µM
  relative viability: 0.815
NCI-H2126; first compound 50 µM
  relative viability: 0.78
NCI-H2126; first compound 158.11 µM
  relative viability: 0.749
NCI-H2126; first compound 500 µM
  relative viability: 0.747
NCI-H650; first compound 5 µM
  relative viability: 1.18
NCI-H650; first compound 15.81 µM
  relative viability: 1.06
NCI-H650; first compound 50 µM
  relative viability: 1.06
NCI-H650; first compound 158.11 µM
  relative viability: 0.931
NCI-H650; first compound 500 µM
  relative viability: 0.892
NCI-H1437; first compound 5 µM
  relative viability: 0.944
NCI-H1437; first compound 15.81 µM
  relative viability: 0.961
NCI-H1437; first compound 50 µM
  relative viability: 1.03
NCI-H1437; first compound 158.11 µM
  relative viability: 0.16
NCI-H1437; first compound 500 µM
  relative viability: 0.0244
NCI-H2405; first compound 5 µM
  relative viability: 0.882
NCI-H2405; first compound 15.81 µM
  relative viability: 0.78
NCI-H2405; first compound 50 µM
  relative viability: 0.778
NCI-H2405; first compound 158.11 µM
  relative viability: 0.772
NCI-H2405; first compound 500 µM
  relative viability: 0.734
NCI-H2009; first compound 5 µM
  relative viability: 1.19
NCI-H2009; first compound 15.81 µM
  relative viability: 1.1
NCI-H2009; first compound 50 µM
  relative viability: 1.12
NCI-H2009; first compound 158.11 µM
  relative viability: 0.141
NCI-H2009; first compound 500 µM
  relative viability: 0.014
HCC-44; first compound 5 µM
  relative viability: 0.841
HCC-44; first compound 15.81 µM
  relative viability: 0.758
HCC-44; first compound 50 µM
  relative viability: 0.92
HCC-44; first compound 158.11 µM
  relative viability: 0.374
HCC-44; first compound 500 µM
  relative viability: 0.041
NCI-H460; first compound 5 µM
  relative viability: 0.426
NCI-H460; first compound 15.81 µM
  relative viability: 0.496
NCI-H460; first compound 50 µM
  relative viability: 0.433
NCI-H460; first compound 158.11 µM
  relative viability: 0.0466
NCI-H460; first compound 500 µM
  relative viability: 0.006
LOU-NH91; first compound 5 µM
  relative viability: 0.73
LOU-NH91; first compound 15.81 µM
  relative viability: 0.679
LOU-NH91; first compound 50 µM
  relative viability: 0.743
LOU-NH91; first compound 158.11 µM
  relative viability: 0.728
LOU-NH91; first compound 500 µM
  relative viability: 0.718
SW 1573; first compound 5 µM
  relative viability: 0.729
SW 1573; first compound 15.81 µM
  relative viability: 0.764
SW 1573; first compound 50 µM
  relative viability: 0.806
SW 1573; first compound 158.11 µM
  relative viability: 0.778
SW 1573; first compound 500 µM
  relative viability: 0.669
NCI-H1793; first compound 5 µM
  relative viability: 0.671
NCI-H1793; first compound 50 µM
  relative viability: 0.66
NCI-H1793; first compound 158.11 µM
  relative viability: 0.273
NCI-H1793; first compound 500 µM
  relative viability: 0.109
NCI-H727; first compound 5 µM
  relative viability: 0.531
NCI-H727; first compound 15.81 µM
  relative viability: 0.558
NCI-H727; first compound 50 µM
  relative viability: 0.662
NCI-H727; first compound 158.11 µM
  relative viability: 0.226
NCI-H727; first compound 500 µM
  relative viability: 0.0618
